Patent US20220402950A1, “SUBSTITUTED BENZIMIDAZOLES AS PAD4 INHIBITORS” (BRISTOL-MYERS SQUIBB COMPANY, priority 2018, published 2022)

Target: human PAD4 (hPAD4) (Homo sapiens, UniProt Q9UM07)
Assay: RFMS Human PAD4 Functional Assay
Assay type: biochemical
Details: hPAD4 RFMS IC50, human PAD4, rapid-fire mass spectrum (RFMS) assay; 5 nM hPAD4, 250 μM BAEE
Method in brief: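 RapidFire ESI-MS quantification, normalised to a modified-citrulline internal standard, after phenyl glyoxal (final 4 mM) derivatisation of the TCA-quenched reaction. The enzyme (10 nM) sat 30 min with compound (up to 50 μM final) before 500 μM BAEE (as added) started a 90 min, 37 °C reaction. Buffer: HEPES pH 7.5, 50 μM calcium, 5 μM TPEN.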

Chain of human PAD4 (hPAD4) (Q9UM07 whole entry): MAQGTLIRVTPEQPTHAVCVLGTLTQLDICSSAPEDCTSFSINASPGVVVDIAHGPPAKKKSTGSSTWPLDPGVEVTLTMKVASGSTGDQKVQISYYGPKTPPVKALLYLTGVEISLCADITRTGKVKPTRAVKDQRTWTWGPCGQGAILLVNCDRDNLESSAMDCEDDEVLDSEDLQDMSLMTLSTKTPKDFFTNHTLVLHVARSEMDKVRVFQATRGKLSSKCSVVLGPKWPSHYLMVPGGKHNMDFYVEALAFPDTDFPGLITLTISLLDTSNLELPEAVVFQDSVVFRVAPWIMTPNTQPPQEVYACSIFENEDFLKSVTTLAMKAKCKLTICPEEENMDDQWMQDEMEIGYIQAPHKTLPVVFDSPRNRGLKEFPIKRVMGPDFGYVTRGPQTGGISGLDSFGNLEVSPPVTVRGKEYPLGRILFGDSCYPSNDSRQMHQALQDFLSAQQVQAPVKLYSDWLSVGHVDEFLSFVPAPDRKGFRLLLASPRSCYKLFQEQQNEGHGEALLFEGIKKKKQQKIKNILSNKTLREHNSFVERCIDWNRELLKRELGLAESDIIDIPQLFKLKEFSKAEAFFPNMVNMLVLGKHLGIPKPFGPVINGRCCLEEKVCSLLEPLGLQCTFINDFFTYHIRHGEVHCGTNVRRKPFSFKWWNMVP

Point of comparison: `COc1cc(C(=O)N2C[C@H]3CC[C@@H]2[C@@H]3N)cc2nc(-c3cc4cccc(C5CCCNC5)c4n3CC3CC3)n(C)c12` (stereo partly drawn) [Example 12, (1R,4R,7R)-2-{2-[1-(cyclopropylmethyl)-7-(piperidin-3-yl)-1H-indol-2-yl]-7-methoxy-1-methyl-1H-1,3-benzodiazole-5-carbonyl}-2-azabicyclo[2.2.1]heptan-7-amine], IC50 73 nM. Against it:
- COc1cc(C(=O)N2C[C@H](N)C[C@@H](F)C2)cc2nc(-c3cc4cccc(C5CCN(C(C)=O)CC5)c4n3CC3CC3)n(C)c12 [Example 205, 1-(4-(2-(5-((3R,5R)-3-amino-5-fluoropiperidine-1-carbonyl)-7-methoxy-1-methyl-1H-benzo[d]imidazol-2-yl)-1-(cyclopropylmethyl)-1H-indol-7-yl)piperidin-1-yl)ethan-1-one] — 1.8-fold lower, 41 nM
- COc1cc(C(=O)N2CC3CCC2[C@@H]3N)cc2nc(-c3cc4cccc(Nc5cc(C)nc(C)c5)c4n3CC3CC3)n(C)c12 (stereo partly drawn) [Example 161, ((7R)-7-amino-2-azabicyclo[2.2.1]heptan-2-yl)(2-(1-(cyclopropylmethyl)-7-((2,6-dimethylpyridin-4-yl)amino)-1H-indol-2-yl)-7-methoxy-1-methyl-1H-benzo[d]imidazol-5-yl)methanone] — within 1.5-fold, 103 nM
- COc1cc(C(=O)N2C[C@H]3CC[C@@H]2[C@@H]3N)cc2nc(-c3cc4cccc(C5CC(C(=O)O)C5)c4n3CC3CC3)n(C)c12 (single isomer, unassigned) [Example 55] — 1.7-fold higher, 122 nM
- COc1cc(C(=O)N2C[C@H]3CC[C@@H]2[C@@H]3N)cc2nc(-c3cc4cccc(-c5ccc6c(c5)C(O)(C(F)(F)F)C(=O)N6)c4n3CC3CC3)n(C)c12 (stereo partly drawn) [Example 198, 5-(2-(5-((1R,4R,7R)-7-amino-2-azabicyclo[2.2.1]heptane-2-carbonyl)-7-methoxy-1-methyl-1H-benzo[d]imidazol-2-yl)-1-(cyclopropylmethyl)-1H-indol-7-yl)-3-hydroxy-3-(trifluoromethyl)indolin-2-one] — 2.8-fold lower, 26 nM
- COCCCC(=O)N1CCC(c2cccc3cc(-c4nc5cc(C(=O)N6C[C@H]7CC[C@@H]6[C@@H]7N)cc(OC)c5n4C)n(CC4CC4)c23)CC1 [Example 237, 1-(4-(2-(5-((1R,4R,7R)-7-amino-2-azabicyclo[2.2.1]heptane-2-carbonyl)-7-methoxy-1-methyl-1H-benzo[d]imidazol-2-yl)-1-(cyclopropylmethyl)-1H-indol-7-yl)piperidin-1-yl)-4-methoxybutan-1-one] — 4.1-fold lower, 18 nM
- COc1cc(C(=O)N2C[C@H]3CC[C@@H]2[C@@H]3N)cc2nc(-c3cc4cccc(C5CN(C(=O)Cc6cccnc6)C5)c4n3CC3CC3)n(C)c12 [Example 78, 1-[3-(2-{5-[(1R,4R,7R)-7-amino-2-azabicyclo[2.2.1]heptane-2-carbonyl]-7-methoxy-1-methyl-1H-1,3-benzodiazol-2-yl}-1-(cyclopropylmethyl)-1H-indol-7-yl)azetidin-1-yl]-2-(pyridin-3-yl)ethan-1-one] — 7.3-fold lower, 10 nM
- CCNC(=O)N1CCC(c2cccc3cc(-c4nc5cc(C(=O)N6C[C@H]7CC[C@@H]6[C@@H]7N)cc(OC)c5n4C)n(CC4CC4)c23)CC1 [Example 250, 4-(2-(5-((1R,4R,7R)-7-amino-2-azabicyclo[2.2.1]heptane-2-carbonyl)-7-methoxy-1-methyl-1H-benzo[d]imidazol-2-yl)-1-(cyclopropylmethyl)-1H-indol-7-yl)-N-ethylpiperidine-1-carboxamide] — 9.1-fold lower, 8 nM
- COc1cc(C(=O)N2C[C@H]3CC[C@@H]2[C@@H]3N)cc2nc(-c3cc4cccc(-c5ccc6c(c5)C(F)(F)C(=O)N6)c4n3CC3CC3)n(C)c12 [Example 190, 5-(2-(5-((1R,4R,7R)-7-amino-2-azabicyclo[2.2.1]heptane-2-carbonyl)-7-methoxy-1-methyl-1H-benzo[d]imidazol-2-yl)-1-(cyclopropylmethyl)-1H-indol-7-yl)-3,3-difluoroindolin-2-one] — within 1.5-fold, 85 nM
- COc1cc(C(=O)N2C[C@H](N)C[C@@H](F)C2)cc2nc(-c3cc4cccc(C5CN(C(C)=O)C5)c4n3CC3CC3)n(Cc3cnn(C)c3)c12 [Example 212, 1-(3-(2-(5-((3R,5R)-3-amino-5-fluoropiperidine-1-carbonyl)-7-methoxy-1-((1-methyl-1H-pryazol-4-yl)methyl)-1H-benzo[d]imidazol-2-yl)-1-(cyclopropylmethyl)-1H-indol-7-yl)azetidin-1-yl)ethane-1-one] — 2.1-fold lower, 35 nM
- COc1cc(C(=O)N2C[C@H]3CC[C@@H]2[C@@H]3N)cc2nc(-c3cc4cccc(-c5ccc(CNC(C)=O)c(CO)c5)c4n3CC3CC3)n(C)c12 [Example 223, N-(4-(2-(5-((1R,4R,7R)-7-amino-2-azabicyclo[2.2.1]heptane-2-carbonyl)-7-methoxy-1-methyl-1H-benzo[d]imidazol-2-yl)-1-(cyclopropylmethyl)-1H-indol-7-yl)-2-(hydroxymethyl)benzyl) acetamide] — within 1.5-fold, 88 nM
- COc1cccc(NC(=O)N2CCC(c3cccc4cc(-c5nc6cc(C(=O)N7C[C@H]8CC[C@@H]7[C@@H]8N)cc(OC)c6n5C)n(CC5CC5)c34)CC2)c1 [Example 248, 4-(2-(5-((1R,4R,7R)-7-amino-2-azabicyclo[2.2.1]heptane-2-carbonyl)-7-methoxy-1-methyl-1H-benzo[d]imidazol-2-yl)-1-(cyclopropylmethyl)-1H-indol-7-yl)-N-(3-methoxyphenyl)piperi-dine-1-carboxamide] — 3.6-fold lower, 20 nM
- COc1cc(C(=O)N2C[C@H]3CC[C@@H]2[C@@H]3N)cc2nc(-c3cc4cccc(C5(O)CCC5)c4n3CC3CC3)n(C)c12 [Example 218, ((1R,4R,7R)-7-amino-2-azabicyclo[2.2.1]heptan-2-yl)(2-(1-(cyclopropylmethyl)-7-(1-hydroxycyclobutyl)-1H-indol-2-yl)-7-methoxy-1-methyl-1H-benzo[d]imidazol-5-yl)methanone] — within 1.5-fold, 57 nM
- COc1cc(C(=O)N2C[C@H]3CC[C@@H]2[C@@H]3N)cc2nc(-c3cc4cccc(C5CC(O)C5)c4n3CC3CC3)n(C)c12 (mixture of isomers) [Example 18, cis- and trans-3-(2-{5-[(1R,4R,7R)-7-amino-2-azabicyclo[2.2.1]heptane-2-carbonyl]-7-methoxy-1-methyl-1H-1,3-benzodiazol-2-yl}-1-(cyclopropylmethyl)-1H-indol-7-yl)cyclobutan-1-ol] — within 1.5-fold, 71 nM
- COc1cc(C(=O)N2C[C@H]3CC[C@@H]2[C@@H]3N)cc2nc(-c3cc4cccc(C5CN(C)C5)c4n3CC3CC3)n(C)c12 [Example 22, (1R,4R,7R)-2-{2-[1-(cyclopropylmethyl)-7-(1-methylazetidin-3-yl)-1H-indol-2-yl]-7-methoxy-1-methyl-1H-1,3-benzodiazole-5-carbonyl}-2-azabicyclo[2.2.1]heptan-7-amine] — 1.7-fold lower, 42 nM
- COc1cc(C(=O)N2C[C@H]3CC[C@@H]2[C@@H]3N)cc2nc(-c3cc4cccc(C5CC(N)C5)c4n3CC3CC3)n(C)c12 (stereo partly drawn) [Example 9, (1R,4R,7R)-2-{2-[7-(3-aminocyclobutyl)-1-(cyclopropylmethyl)-1H-indol-2-yl]-7-methoxy-1-methyl-1H-1,3-benzodiazole-5-carbonyl}-2-azabicyclo[2.2.1]heptan-7-amine] — 1.8-fold lower, 40 nM
- CCOC(=O)c1ccccc1-c1cccc2cc(-c3nc4cc(C(=O)N5C[C@H]6CC[C@@H]5[C@@H]6N)cc(OC)c4n3C)n(CC3CC3)c12 [Example 123, ethyl 2-(2-(5-((1R,4R,7R)-7-amino-2-azabicyclo[2.2.1]heptane-2-carbonyl)-7-methoxy-1-methyl-1H-benzo[d]imidazol-2-yl)-1-(cyclopropylmethyl)-1H-indol-7-yl)benzoate] — within 1.5-fold, 84 nM
- COc1cc(C(=O)N2C[C@H]3CC[C@@H]2[C@@H]3N)cc2nc(-c3cc4cccc(C5CCOCC5)c4n3CC3CC3)n(C)c12 [Example 3, ((1R,4R,7R)-7-amino-2-azabicyclo[2.2.1]heptan-2-yl)(2-(1-(cyclopropylmethyl)-7-(tetrahydro-2H-pyran-4-yl)-1H-indol-2-yl)-7-methoxy-1-methyl-1H-benzo[d]imidazol-5-yl)methanone] — within 1.5-fold, 100 nM

Same assay, conditions: human PAD4, rapid-fire mass spectrum (RFMS) assay; 5 nM hPAD4, 250 μM BAEE; read-out: hPAD4 RFMS IC50

Point of comparison: `COc1cc(C(=O)N2C[C@H]3CC[C@@H]2[C@@H]3N)cc2nc(-c3cc4cccc(C5CC6(CNC6)C5)c4n3CC3CC3)n(C)c12` [Example 61, (1R,4R,7R)-2-[2-(7-{2-azaspiro[3.3]heptan-6-yl}-1-(cyclopropylmethyl)-1H-indol-2-yl)-7-methoxy-1-methyl-1H-1,3-benzodiazole-5-carbonyl]-2-azabicyclo[2.2.1]heptan-7-amine], IC50 34 nM. Against it:
- COc1cc(C(=O)N2C[C@H](N)C[C@@H](F)C2)cc2nc(-c3cc4cccc(C5CN(C(C)=O)C5)c4n3CC3CC3)n(C)c12 [Example 41, 1-[3-(2-{5-[(3R,5R)-3-amino-5-fluoropiperidine-1-carbonyl]-7-methoxy-1-methyl-1H-1,3-benzodiazol-2-yl}-1-(cyclopropylmethyl)-1H-indol-7-yl)azetidin-1-yl]ethan-1-one] — 1.6-fold higher, 53 nM
- COc1cc(C(=O)N2C[C@H]3CC[C@@H]2[C@@H]3N)cc2nc(-c3cc4cccc(C5CC(NC(C)=O)C5)c4n3CC3CC3)n(C)c12 (stereo partly drawn) [Example 57, N-[3-(2-{5-[(1R,4R,7R)-7-amino-2-azabicyclo[2.2.1]heptane-2-carbonyl]-7-methoxy-1-methyl-1H-1,3-benzodiazol-2-yl}-1-(cyclopropylmethyl)-1H-indol-7-yl)cyclobutyl]acetamide] — 3.4-fold lower, 10 nM
- CNC(=O)C1CC(c2cccc3cc(-c4nc5cc(C(=O)N6C[C@H]7CC[C@@H]6[C@@H]7N)cc(OC)c5n4C)n(CC4CC4)c23)C1 (single isomer, unassigned) [Example 44] — within 1.5-fold, 48 nM
